# Measured values reported in PubChem BioAssay (NCI).
#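 Test compounds were applied to cells in 96-well plates for 48 hours at 5 doses. At the TGI there is no net growth.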
# Columns and labels:
# Assay in all cases: inhibition of tumour cell growth, NCI panel, 48 h
# HT29 colon = tested on: HT29 colon
# ACHN renal = tested on: ACHN renal
# CAKI-1 renal = tested on: CAKI-1 renal
# U251 CNS = tested on: U251 CNS
# A549 NSCLC = tested on: A549 NSCLC
# SNB-19 CNS = tested on: SNB-19 CNS
# HOP-92 NSCLC = tested on: HOP-92 NSCLC
# EKVX NSCLC = tested on: EKVX NSCLC
# MDA-N = tested on: MDA-N
# HCT-116 colon = tested on: HCT-116 colon
# SK-MEL-28 melanoma = tested on: SK-MEL-28 melanoma
# BT-549 breast = tested on: BT-549 breast
# SK-MEL-2 melanoma = tested on: SK-MEL-2 melanoma
# SW-620 colon = tested on: SW-620 colon
# UO-31 renal = tested on: UO-31 renal
# HCC-2998 colon = tested on: HCC-2998 colon
# SK-MEL-5 melanoma = tested on: SK-MEL-5 melanoma
# MDA-MB-231 breast = tested on: MDA-MB-231 breast
# SF-539 CNS = tested on: SF-539 CNS
# PC-3 prostate = tested on: PC-3 prostate
# OVCAR-3 ovarian = tested on: OVCAR-3 ovarian
# TK-10 renal = tested on: TK-10 renal
# MOLT-4 leukemia = tested on: MOLT-4 leukemia
# NCI-H226 lung = tested on: NCI-H226 lung
# OVCAR-5 ovarian = tested on: OVCAR-5 ovarian
# DU-145 prostate = tested on: DU-145 prostate
# T-47D breast = tested on: T-47D breast
# HOP-62 NSCLC = tested on: HOP-62 NSCLC
# IGROV1 ovarian = tested on: IGROV1 ovarian
# SN12C renal = tested on: SN12C renal
# OVCAR-4 ovarian = tested on: OVCAR-4 ovarian
# M14 melanoma = tested on: M14 melanoma
# 786-0 renal = tested on: 786-0 renal
# NCI-H23 lung = tested on: NCI-H23 lung
# SF-295 CNS = tested on: SF-295 CNS
# NCI/ADR-RES ovarian = tested on: NCI/ADR-RES ovarian
# MCF7 breast = tested on: MCF7 breast
# MDA-MB-435 = tested on: MDA-MB-435
# NCI-H460 lung = tested on: NCI-H460 lung
# OVCAR-8 ovarian = tested on: OVCAR-8 ovarian
# KM12 colon = tested on: KM12 colon
# HCT-15 colon = tested on: HCT-15 colon
# SNB-75 CNS = tested on: SNB-75 CNS
# UACC-62 melanoma = tested on: UACC-62 melanoma
# UACC-257 melanoma = tested on: UACC-257 melanoma
# HL-60(TB) leukemia = tested on: HL-60(TB) leukemia
# LOX IMVI melanoma = tested on: LOX IMVI melanoma
# COLO 205 colon = tested on: COLO 205 colon
# SK-OV-3 ovarian = tested on: SK-OV-3 ovarian
smiles,measurement,setting,value
CCCCCCCCCCCCCCCCCCNC(=S)/N=C/c1c(O)cc(C)oc1=O,TGI,HT29 colon,76.8 µM
same,TGI,ACHN renal,65.4 µM
same,TGI,CAKI-1 renal,64.1 µM
same,TGI,U251 CNS,> 100 µM
same,TGI,A549 NSCLC,69.5 µM
same,TGI,SNB-19 CNS,52.1 µM
same,TGI,HOP-92 NSCLC,> 100 µM
same,TGI,EKVX NSCLC,57.9 µM
same,TGI,MDA-N,> 100 µM
same,TGI,HCT-116 colon,> 100 µM
same,TGI,SK-MEL-28 melanoma,> 100 µM
same,TGI,BT-549 breast,40.6 µM
same,TGI,SK-MEL-2 melanoma,52.1 µM
same,TGI,SW-620 colon,96 µM
same,TGI,UO-31 renal,39.4 µM
same,TGI,HCC-2998 colon,39 µM
same,TGI,SK-MEL-5 melanoma,> 100 µM
same,TGI,MDA-MB-231 breast,> 100 µM
same,TGI,SF-539 CNS,62.3 µM
same,TGI,PC-3 prostate,69.8 µM
same,TGI,OVCAR-3 ovarian,> 100 µM
same,TGI,TK-10 renal,35.9 µM
same,TGI,MOLT-4 leukemia,> 100 µM
same,TGI,NCI-H226 lung,> 100 µM
same,TGI,OVCAR-5 ovarian,37.3 µM
same,TGI,DU-145 prostate,> 100 µM
same,TGI,T-47D breast,> 100 µM
same,TGI,HOP-62 NSCLC,> 100 µM
same,TGI,IGROV1 ovarian,55.8 µM
same,TGI,SN12C renal,> 100 µM
same,TGI,OVCAR-4 ovarian,80 µM
same,TGI,M14 melanoma,41.9 µM
same,TGI,786-0 renal,> 100 µM
same,TGI,NCI-H23 lung,47.8 µM
same,TGI,SF-295 CNS,64.7 µM
same,TGI,NCI/ADR-RES ovarian,> 100 µM
same,TGI,MCF7 breast,> 100 µM
same,TGI,MDA-MB-435,55.6 µM
same,TGI,NCI-H460 lung,> 100 µM
same,TGI,OVCAR-8 ovarian,63.4 µM
same,TGI,KM12 colon,36.3 µM
same,TGI,HCT-15 colon,62 µM
same,TGI,SNB-75 CNS,49.3 µM
same,TGI,UACC-62 melanoma,> 100 µM
same,TGI,UACC-257 melanoma,65.3 µM
same,TGI,HL-60(TB) leukemia,> 100 µM
same,TGI,LOX IMVI melanoma,> 100 µM
same,TGI,COLO 205 colon,> 100 µM
same,TGI,SK-OV-3 ovarian,87.4 µM
